Assay [1] has as its system P. berghei. Description: Liver stage parasite load, luciferase-expressing P. berghei in HepG2 cells. Type of assay: cell-based, Plasmodium berghei ANKA. To be noted: HepG2 host cells. As for the experimental part: (§1) Cell-based anti-Plasmodium assays. For liver stage assays, 15,000 HepG2 or 8,000 Huh7 cells/well were added to 384-well microtiter plates using a multichannel pipette (Rainin). After 2 hours at 37° C., compounds (0-100 μM) were added to cells in duplicate or triplicate in a final concentration of 1% DMSO. DMSO was used as the negative control. Following compound incubation at 37° C. for ˜1 hr, harvested luciferase-expressing P. berghei ANKA sporozoites were added to the plates at a density of 3,000 sporozoites/well. P. berghei ANKA sporozoites were obtained from harvesting the salivary glands of infected A. stephensi mosquitoes. The plates were spun for 10 min at 1,000 rpm, and then incubated at 37° C. for ˜45 hrs. […] After ˜45 hours at 37° C., liver cell viability was assessed using CellTiter-Fluor (Promega) and then parasite load was determined using Bright-Glo (Promega). The relative fluorescence and luminescence signal intensity of each well was evaluated with an EnVision System. The luminescence signal in the presence of compounds was normalized to the negative control (DMSO). Dose-response analysis was performed with GraphPad Prism to yield the reported EC50 values.
Anti-Plasmodium activity was evaluated in the parasite's liver stage using a previously reported high-throughput assay. In this assay, luciferase-expressing P. berghei (murine) parasites are used to infect human hepatoma cells (HepG2) and parasite load is assessed with a luminometer subsequent to evaluating HepG2 viability using a commercially available quantification kit that measures intracellular protease activity.
(§2) Specifically, their ability to inhibit P. berghei infection in two human hepatoma cell lines (HepG2 and Huh7) as well as cytotoxicity against HepG2 and Huh7 cells was determined as described above. Liver cell cytotoxicity was evaluated with two different commercially available assays, one that tests for intracellular protease activity with a fluorescence reporter and another that relies on the luminescent detection of total ATP.

Assay [2] deals with P. berghei. Description: Liver stage parasite load, luciferase-expressing P. berghei in Huh7 cells. To be noted: Huh7 host cells, read-out: IC50 Liver state (Huh7). In kind it is cell-based, Plasmodium berghei ANKA. As for the experimental part: as §1, §2
In assay [3] the test system is panel of 140 kinases. Description: Kinase selectivity profiling, 33P-ATP filter-binding assay (Dundee). In kind it is biochemical. Conditions: of the 140 kinases, 10 μM. As for the experimental part: (§3) Kinase selectivity profiling. The selectivity profile of HS-206 to inhibit mammalian kinases was tested against a panel of 140 kinases at a single concentration of 10 μM. Tests were performed using a radiolabeld (^33P-ATP) filter-binding assay at the International Centre for Kinase Profiling at the University of Dundee, UK (http://www.kinase-screen.mrc.ac.uk/).
(§4) This panel contains members of all major kinase families, including tyrosine kinases (TK), tyrosine kinase-like (TKL), sterile serine/threonine (STE), and CDK/MAPK/GSK/CLK (CMGC). […] For these kinases, IC50 values were determined (Table 1).

The target in assay [4] is IRAK1 (Homo sapiens, UniProt P51617). Description: Kinase profiling (Dundee), IRAK1. In kind it is biochemical. As for the experimental part:
as §3, §4

For assay [5], the target named is GCK (Homo sapiens, UniProt Q12851). In words: Kinase profiling (Dundee), GCK. In kind it is biochemical. Conditions: 10 μM. As for the experimental part:
as §3, §4

Assay [6] has as its target MINK1 (Homo sapiens, UniProt Q8N4C8). In words: Kinase profiling (Dundee), MINK1. Type of assay: biochemical. Conditions: 10 μM. As for the experimental part: as §3, §4
Assay [7] relates to ATP-binding proteins. In words: ATP-beads off-target elution, HepG2 whole-cell lysates. To be noted: uninfected HepG2 lysate; compared to DMSO control.
Assay [8] has as its system 60 cell lines (NCI-60). In words: NCI-60 Cell One-Dose Screen. In kind it is cell-based. Conditions: 10 μM, 24 h. As for the experimental part:
In order to examine the effect of HS-206 on cell viability of different cancers, a screen of 60 cell lines was performed at the NCI, called the NCI-60 Cell One-Dose Screen. […] This screen determined growth inhibition as an effect of HS-206 treatment over a period of 24 h.

In assay [9] the test system is MDA-MB-231. Description: Viability and proliferation assays on breast cancer cell lines. Type of assay: cell-based. To be noted: 48 h and 72 h.

Entries after “also recorded” stand apart in the source; their conditions may differ.

IRAK1, sequence (P51617 whole entry): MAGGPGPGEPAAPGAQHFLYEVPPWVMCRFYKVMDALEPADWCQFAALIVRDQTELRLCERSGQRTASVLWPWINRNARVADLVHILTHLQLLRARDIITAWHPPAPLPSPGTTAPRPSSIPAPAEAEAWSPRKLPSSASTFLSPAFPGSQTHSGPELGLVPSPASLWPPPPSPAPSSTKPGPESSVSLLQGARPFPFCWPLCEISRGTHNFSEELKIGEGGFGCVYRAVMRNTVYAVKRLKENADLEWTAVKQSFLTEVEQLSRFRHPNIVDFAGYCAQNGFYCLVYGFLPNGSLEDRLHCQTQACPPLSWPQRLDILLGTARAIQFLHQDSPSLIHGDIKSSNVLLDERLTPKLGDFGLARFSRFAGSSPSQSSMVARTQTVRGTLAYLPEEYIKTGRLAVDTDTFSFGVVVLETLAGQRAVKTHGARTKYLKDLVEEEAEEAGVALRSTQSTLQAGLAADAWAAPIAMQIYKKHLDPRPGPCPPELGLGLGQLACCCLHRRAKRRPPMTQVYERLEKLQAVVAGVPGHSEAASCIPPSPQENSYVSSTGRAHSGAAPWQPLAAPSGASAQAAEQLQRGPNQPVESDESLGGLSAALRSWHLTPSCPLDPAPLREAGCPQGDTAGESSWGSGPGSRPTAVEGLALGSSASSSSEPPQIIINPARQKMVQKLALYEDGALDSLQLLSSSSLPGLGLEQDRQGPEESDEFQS
MINK1, sequence (Q8N4C8 whole entry): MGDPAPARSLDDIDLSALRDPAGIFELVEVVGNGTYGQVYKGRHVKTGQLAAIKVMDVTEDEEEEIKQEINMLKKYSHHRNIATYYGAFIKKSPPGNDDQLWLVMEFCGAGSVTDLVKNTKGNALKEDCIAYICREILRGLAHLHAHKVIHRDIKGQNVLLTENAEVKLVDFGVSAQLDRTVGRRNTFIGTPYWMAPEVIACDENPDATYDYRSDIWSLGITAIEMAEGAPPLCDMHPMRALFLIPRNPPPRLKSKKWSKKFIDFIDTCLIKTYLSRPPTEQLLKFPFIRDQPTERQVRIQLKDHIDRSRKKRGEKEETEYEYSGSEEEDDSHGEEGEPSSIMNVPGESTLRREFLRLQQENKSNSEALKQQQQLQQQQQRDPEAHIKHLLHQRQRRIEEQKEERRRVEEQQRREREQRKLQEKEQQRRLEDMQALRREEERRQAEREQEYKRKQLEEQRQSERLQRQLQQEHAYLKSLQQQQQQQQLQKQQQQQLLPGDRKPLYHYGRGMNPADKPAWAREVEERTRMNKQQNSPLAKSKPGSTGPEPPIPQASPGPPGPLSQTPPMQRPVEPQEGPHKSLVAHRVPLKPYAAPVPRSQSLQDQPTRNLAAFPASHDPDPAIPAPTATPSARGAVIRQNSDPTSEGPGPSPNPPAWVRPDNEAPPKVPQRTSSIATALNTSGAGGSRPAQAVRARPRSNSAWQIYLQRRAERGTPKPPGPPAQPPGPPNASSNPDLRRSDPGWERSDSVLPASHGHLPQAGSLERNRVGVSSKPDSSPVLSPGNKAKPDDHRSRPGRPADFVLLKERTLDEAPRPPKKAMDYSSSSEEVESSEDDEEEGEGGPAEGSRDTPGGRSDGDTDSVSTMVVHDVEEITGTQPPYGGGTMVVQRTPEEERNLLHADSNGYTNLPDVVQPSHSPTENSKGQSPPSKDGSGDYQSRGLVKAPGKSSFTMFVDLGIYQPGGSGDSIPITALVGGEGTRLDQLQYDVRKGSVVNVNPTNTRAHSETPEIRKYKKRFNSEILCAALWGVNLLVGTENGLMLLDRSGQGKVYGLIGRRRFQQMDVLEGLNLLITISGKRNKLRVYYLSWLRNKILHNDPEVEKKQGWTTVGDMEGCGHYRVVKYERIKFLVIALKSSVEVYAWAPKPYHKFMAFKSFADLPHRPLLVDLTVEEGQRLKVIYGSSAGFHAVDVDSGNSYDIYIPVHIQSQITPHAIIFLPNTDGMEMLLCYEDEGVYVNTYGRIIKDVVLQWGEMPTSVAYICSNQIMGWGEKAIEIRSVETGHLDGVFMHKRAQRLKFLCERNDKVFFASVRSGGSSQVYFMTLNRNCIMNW
GCK, sequence (Q12851 whole entry): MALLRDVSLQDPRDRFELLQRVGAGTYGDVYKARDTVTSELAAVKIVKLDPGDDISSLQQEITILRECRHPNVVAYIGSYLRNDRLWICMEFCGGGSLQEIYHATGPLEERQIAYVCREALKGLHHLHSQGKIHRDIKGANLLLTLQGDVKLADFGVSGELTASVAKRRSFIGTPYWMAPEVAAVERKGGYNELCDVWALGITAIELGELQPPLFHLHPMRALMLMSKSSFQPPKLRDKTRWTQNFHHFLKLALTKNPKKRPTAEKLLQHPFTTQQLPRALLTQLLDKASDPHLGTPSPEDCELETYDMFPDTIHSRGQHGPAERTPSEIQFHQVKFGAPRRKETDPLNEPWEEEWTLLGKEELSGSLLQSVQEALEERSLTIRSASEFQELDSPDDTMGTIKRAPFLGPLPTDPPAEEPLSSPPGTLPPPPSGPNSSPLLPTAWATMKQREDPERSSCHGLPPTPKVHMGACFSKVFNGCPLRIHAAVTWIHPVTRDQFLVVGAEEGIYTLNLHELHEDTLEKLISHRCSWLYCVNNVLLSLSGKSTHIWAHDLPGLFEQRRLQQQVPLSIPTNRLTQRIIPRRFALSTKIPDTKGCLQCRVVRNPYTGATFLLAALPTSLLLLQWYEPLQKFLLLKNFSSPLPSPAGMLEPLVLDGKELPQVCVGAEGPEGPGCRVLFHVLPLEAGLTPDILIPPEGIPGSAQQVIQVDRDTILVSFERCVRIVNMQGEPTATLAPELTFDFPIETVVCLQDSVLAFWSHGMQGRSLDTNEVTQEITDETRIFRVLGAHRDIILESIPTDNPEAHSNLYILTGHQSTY

Turning to `CCCn1c(NC(=O)c2cccc(C(N)=O)c2)nc2ccccc21` [HS-206 (1), (E)-N-(1-Propyl-1,3-dihydro-2H-benzo[d]imidazol-2-ylidene)isophthalamide], the 50% inhibitory concentration (IC50) was about 7 µM in [1] (Plasmodium berghei, HepG2, parasite load); 6.6 µM in [1] (parasite load); about 7 µM in assay [2] (Plasmodium berghei, Huh-7, parasite load); 7.3 µM in assay [2] (parasite load); 0.39 ± 0.05 µM in [4]. Besides, the “number of kinases with ≥80% inhibition” value in [3] was 11. The inhibition at 10 µM in [4] (10 μM), in [5] and in assay [6] was over 90% each time. In addition, the “elution of ATP-binding proteins from ATP-sepharose beads” value in assay [7] is recorded as “did not lead to any significant elution of ATP-binding proteins”. Moreover, the “growth inhibition, one-dose screen” value in assay [8] (colorectal (KM12), leukemia (HL-60), non-small cell lung cancer (NCI-H522)) is given as “most affected”; in [8] (melanoma (M14), renal (786-0), ovarian cancer (Ovcar-3)), “little effect”. Moreover, the cell proliferation result in [9] is “significant reduction in cell proliferation; also recorded: inhibits cell proliferation in a dose-dependent manner”.

The values above are taken from patent US11767298B2, “Substituted benzimidazoles as inhibitors of transforming growth factor-β kinase” (Duke University, priority 2016, dated 2023).
